This is an account of results in paper doi:10.1101/2025.04.19.649632v1 (biorxiv, 2025).

SMILES strings stand for the structures. Like-named read-outs stand apart in the source and are kept apart here.

Assay [1] addresses T1, USP32 FL (USP32FL, USP32WT) (Homo sapiens, UniProt Q8NFA0). The assay is classed as biochemical. To be noted: 500 nM UbRhoMP, pH 7.6, 1 mM TCEP, RT; covalent.
Assay [2] concerns the target T1, USP32 FL (USP32FL, USP32WT). Nature of the assay: biochemical. To be noted: read-out: kinact (s^-1).
Assay [3] shares this target. To be noted: read-out: Ki; covalent.
The target is the same in assay [4]. Nature of the assay: UbRhoMP fluorescence intensity assay, […] min preincubation. The assay is classed as biochemical.

T1 sequence (Q8NFA0 whole entry): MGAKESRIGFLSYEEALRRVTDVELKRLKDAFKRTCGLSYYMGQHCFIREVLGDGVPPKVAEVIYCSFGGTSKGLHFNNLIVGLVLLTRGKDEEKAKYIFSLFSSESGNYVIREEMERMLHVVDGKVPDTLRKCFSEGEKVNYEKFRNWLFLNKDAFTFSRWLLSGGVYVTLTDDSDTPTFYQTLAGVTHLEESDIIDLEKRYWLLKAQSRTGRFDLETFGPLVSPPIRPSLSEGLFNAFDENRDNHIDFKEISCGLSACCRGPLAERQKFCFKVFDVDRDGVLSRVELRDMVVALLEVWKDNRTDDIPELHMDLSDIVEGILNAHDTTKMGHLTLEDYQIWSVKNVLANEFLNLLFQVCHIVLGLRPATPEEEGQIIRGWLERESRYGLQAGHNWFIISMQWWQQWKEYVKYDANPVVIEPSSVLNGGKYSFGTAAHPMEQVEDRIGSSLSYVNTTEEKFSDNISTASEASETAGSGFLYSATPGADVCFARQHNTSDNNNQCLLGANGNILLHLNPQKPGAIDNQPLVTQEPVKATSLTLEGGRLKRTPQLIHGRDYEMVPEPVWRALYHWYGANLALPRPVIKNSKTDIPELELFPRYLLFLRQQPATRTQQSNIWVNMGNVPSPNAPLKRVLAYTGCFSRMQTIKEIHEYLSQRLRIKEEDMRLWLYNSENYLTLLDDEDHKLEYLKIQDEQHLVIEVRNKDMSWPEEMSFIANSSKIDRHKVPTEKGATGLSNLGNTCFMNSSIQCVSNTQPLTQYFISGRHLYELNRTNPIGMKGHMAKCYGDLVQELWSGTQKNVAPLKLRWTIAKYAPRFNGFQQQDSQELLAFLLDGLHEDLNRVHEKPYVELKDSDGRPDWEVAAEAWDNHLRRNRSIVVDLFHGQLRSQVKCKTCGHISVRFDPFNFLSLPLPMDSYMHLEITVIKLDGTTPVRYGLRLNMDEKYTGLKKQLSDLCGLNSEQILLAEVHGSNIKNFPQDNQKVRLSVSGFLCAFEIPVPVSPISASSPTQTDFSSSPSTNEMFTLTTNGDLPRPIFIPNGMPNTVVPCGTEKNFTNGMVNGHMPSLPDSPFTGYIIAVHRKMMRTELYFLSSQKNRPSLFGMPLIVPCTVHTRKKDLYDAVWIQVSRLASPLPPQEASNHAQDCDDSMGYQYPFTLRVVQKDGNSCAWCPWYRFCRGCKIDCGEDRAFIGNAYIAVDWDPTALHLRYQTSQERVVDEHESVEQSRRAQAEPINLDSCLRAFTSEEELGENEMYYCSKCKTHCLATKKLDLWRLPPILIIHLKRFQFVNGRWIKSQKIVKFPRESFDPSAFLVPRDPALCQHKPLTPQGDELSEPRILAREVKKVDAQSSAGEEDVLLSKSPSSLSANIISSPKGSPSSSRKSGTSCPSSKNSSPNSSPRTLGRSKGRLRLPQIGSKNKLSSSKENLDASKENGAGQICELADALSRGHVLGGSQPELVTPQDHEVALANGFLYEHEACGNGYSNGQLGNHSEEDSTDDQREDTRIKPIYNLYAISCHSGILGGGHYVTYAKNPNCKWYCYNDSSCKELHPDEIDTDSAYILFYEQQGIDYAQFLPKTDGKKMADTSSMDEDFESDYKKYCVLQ

With `Cc1noc(C)c1S(=O)(=O)N1CCC(C(=O)N[C@@H]2CCN(C#N)C2)CC1` [BB01CA282, Huib32], in assay [1], the kinact/Ki was 18,800 s^-1M^-1. Besides, the kinact in assay [2] was found to be 0.000222 s⁻¹. The KI (inactivation) in assay [3] came to 11.8 nM.
`Cc1noc(C)c1S(=O)(=O)N1CCC(C(=O)N2CC3CC2CN3C#N)CC1` (centres unmarked) [BB12CA282]: the kinact/Ki in assay [1] is on record as 2,130 s^-1M^-1. The same molecule showed a half-maximal inhibitory concentration (IC50) in assay [4] of 94 nM. Besides, the kinact in assay [2] was 0.000324 s⁻¹. Further, the KI (inactivation) in assay [3] came out at 152 nM.
As for `Cc1noc(C)c1S(=O)(=O)N1CCC(C(=O)N2CCC3(CCN(C#N)C3)C2)CC1` (centres unmarked) [BB14CA282], in assay [1], the kinact/Ki is given as 219 s^-1M^-1. The same molecule had an IC50 in assay [4] of 518 nM. Further, the kinact in assay [2] turned out to be 0.000984 s⁻¹. The KI (inactivation) in assay [3] came to 4490 nM.
`CCN1/C(=C/C=C/C=C/C2=[N+](CCCCCC(=O)NCCCc3cn(CCOc4ccc(S(=O)(=O)N5CCC(C(=O)N[C@@H]6CCN(C#N)C6)CC5)cc4)nn3)c3ccc(S(=O)(=O)[O-])cc3C2(C)C)C(C)(C)c2cc(S(=O)(=O)O)ccc21` [Huib32*1] yielded an IC50 in assay [4] (500 nM UbRhoMP, pH 7.6, 1 mM TCEP, RT, covalent) of 412 nM.
As for `N#CN1CC[C@@H](NC(=O)C2CCN(S(=O)(=O)c3ccc(OCCn4cc(CNC(=O)CCCC[C@@H]5SC[C@@H]6NC(=O)N[C@@H]65)nn4)cc3)CC2)C1` [Huib32*2], the IC50 in assay [4] was found to be 266 nM.
The same measure, in the same setting: next, `N#CN1CC[C@@H](NC(=O)C2CCN(S(=O)(=O)c3ccc(OCCN=[N+]=[N-])cc3)CC2)C1` [Huib32*]: 670 nM.
